Broadly, the IC50 is the concentration needed to halve the response being measured.

Molecules are shown by their SMILES. Like-named read-outs stand apart in the source and are kept apart here. Square brackets hold non-standard residues; d marks the D form. Peptide text beside a SMILES is read from it. * marks the point of attachment. Adamantane1carbonyl = O=C(C12CC3CC(CC(C3)C1)C2)*; NH((S)CH(Me)CH2NMe2) = C[C@@H](CN(C)C)N*; Benzoyl(4-OMe) = COc1ccc(C(=O)*)cc1; Gly(octyl) = CCCCCCCC[C@H](N)C(=O)O; Oxazole4CO(2-Me) = Cc1nc(C(=O)*)co1; Thiophene2carbonyl = O=C(c1cccs1)*; X4 = COc1ccc2cc(C(=O)*)c(=O)oc2c1; X7 = O=C(c1ccc2[nH]ccc2c1)*; X5 = O=C(C1CCc2ccccc2C1)*; Aib = CC(C)(N)C(=O)O; βAla = NCCC(=O)O

IC50 data for seven molecules are collected here from patent US20240174714A1, “TREATMENT OF SKIN DISORDERS” (priority 2021, published 2024).

Data set [1] concerns axenic Leishmania donovani MHOM-ET-67/L82 amastigotes. Nature of the data set: In vitro antiprotozoal assay, axenic amastigotes. Type of data set: cell-based. Conditions: axenic amastigotes; read-out: L.don.ax. IC50.
Protocol: (§1) The testing of the inventive compounds against Leishmania donovani (strain MHOM/ET/67/L82) was performed in 96 well plates at concentrations in serial dilutions. Tests were done in triplicate.
In data set [2] the test system is intracellular Leishmania donovani MHOM-ET-67/L82 amastigotes. Nature of the data set: In vitro antiprotozoal assay, intracellular amastigotes. It counts as cell-based. Conditions: intracellular amastigotes; read-out: L.don.InMac IC50.
Protocol: as §1
Data set [3] can be described thus: Cytotoxicity assay (Alamar Blue) on L6-cells. Type of data set: cell-based, rat. Here is the method: Tests were done in triplicate.
The plates were incubated for additional 2 h.

As to `CCCCCCCC[C@H](NC(=O)[C@@H]1CCCN1C(=O)c1cc2ccc(OC)cc2oc1=O)C(=O)N[C@@H](CC(C)C)C(=O)NC(C)(C)C(=O)N[C@@H](CC(C)C)C(=O)N[C@@H](CC(C)C)C(=O)NC(C)(C)C(=O)NC(C)(C)C(=O)NCCC(=O)N[C@@H](C)CN(C)C` [Compound 5769, (2S)-N-[(1S)-1-[(1-{[(1S)-1-{[(1S)-1-{[1-({1-[(2-{[(2S)-1-(dimethylamino)propan-2-yl]carbamoyl}ethyl)carbamoyl]-1-methylethyl}carbamoyl)-1-methylethyl]carbamoyl}-3-methylbutyl]carbamoyl}-3-methylbutyl]carbamoyl}-1-methylethyl)carbamoyl]-3-methylbutyl]-2-{[(2S)-1-(7-methoxy-2-oxo-2H-chromene-3-carbonyl)pyrrolidin-2-yl]formamido}decanamide] (X4-P[Gly(octyl)]L[Aib]LL[Aib][Aib][βAla]-{NH((S)CH(Me)CH2NMe2)}), the values for the concentration for half-maximal inhibition (IC50) in data set [1] and in data set [2] were 8.1 nM and 216 nM, respectively. This molecule also returned an IC50 at 68 h in data set [3] (rat) of 423 nM.

With `CCCCCCCC[C@H](NC(=O)[C@@H]1CCCN1C(=O)C12CC3CC(CC(C3)C1)C2)C(=O)N[C@@H](CC(C)C)C(=O)NC(C)(C)C(=O)N[C@@H](CC(C)C)C(=O)N[C@@H](CC(C)C)C(=O)NC(C)(C)C(=O)NC(C)(C)C(=O)NCCC(=O)N[C@@H](C)CN(C)C` [Compound 5770, (2S)-2-{[(2S)-1-(adamantane-1-carbonyl)pyrrolidin-2-yl]formamido}-N-[(1S)-1-[(1-{[(1S)-1-{[(1S)-1-{[1-({1-[(2-{[(2S)-1-(dimethylamino)propan-2-yl]carbamoyl}ethyl)carbamoyl]-1-methylethyl}carbamoyl)-1-methylethyl]carbamoyl}-3-methylbutyl]carbamoyl}-3-methylbutyl]carbamoyl}-1-methylethyl)carbamoyl]-3-methylbutyl]decanamide] (Adamantane1carbonyl-P[Gly(octyl)]L[Aib]LL[Aib][Aib][βAla]-{NH((S)CH(Me)CH2NMe2)}), the concentration for half-maximal inhibition (IC50) worked out at 1 nM in data set [1] and 338 nM in data set [2]. The same molecule displayed an IC50 at 68 h in data set [3] (rat) of 185 nM.

Regarding `CCCCCCCC[C@H](NC(=O)[C@@H]1CCCN1C(=O)c1cccs1)C(=O)N[C@@H](CC(C)C)C(=O)NC(C)(C)C(=O)N[C@@H](CC(C)C)C(=O)N[C@@H](CC(C)C)C(=O)NC(C)(C)C(=O)NC(C)(C)C(=O)NCCC(=O)N[C@@H](C)CN(C)C` [Compound 5904, (2S)-N-[(1S)-1-[(1-{[(1S)-1-{[(1S)-1-{[1-({1-[(2-{[(2S)-1-(dimethylamino)propan-2-yl]carbamoyl}ethyl)carbamoyl]-1-methylethyl}carbamoyl)-1-methylethyl]carbamoyl}-3-methylbutyl]carbamoyl}-3-methylbutyl]carbamoyl}-1-methylethyl)carbamoyl]-3-methylbutyl]-2-{[(2S)-1-(thiophene-2-carbonyl)pyrrolidin-2-yl]formamido}decanamide] (Thiophene2carbonyl-P[Gly(octyl)]L[Aib]LL[Aib][Aib][βAla]-{NH((S)CH(Me)CH2NMe2)}), the values for the half-inhibitory concentration (IC50) in data set [1] and in data set [2] were 3.1 nM and 11.4 nM, respectively. Further, the IC50 at 68 h in data set [3] (rat myoblast L6 cells, read-out: Cytotox L6 IC50) was 216 nM.

As for `CCCCCCCC[C@H](NC(=O)[C@@H]1CCCN1C(=O)c1coc(C)n1)C(=O)N[C@@H](CC(C)C)C(=O)NC(C)(C)C(=O)N[C@@H](CC(C)C)C(=O)N[C@@H](CC(C)C)C(=O)NC(C)(C)C(=O)NC(C)(C)C(=O)NCCC(=O)N[C@@H](C)CN(C)C` [Compound 5905, (2S)-N-[(1S)-1-[(1-{[(1S)-1-{[(1S)-1-{[1-({1-[(2-{[(2S)-1-(dimethylamino)propan-2-yl]carbamoyl}ethyl)carbamoyl]-1-methylethyl}carbamoyl)-1-methylethyl]carbamoyl}-3-methylbutyl]carbamoyl}-3-methylbutyl]carbamoyl}-1-methylethyl)carbamoyl]-3-methylbutyl]-2-{[(2S)-1-(2-methyl-1,3-oxazole-4-carbonyl)pyrrolidin-2-yl]formamido}decanamide] ({Oxazole4CO(2-Me)}-P[Gly(octyl)]L[Aib]LL[Aib][Aib][βAla]-{NH((S)CH(Me)CH2NMe2)}), the IC50 in data set [1] came out at 7.9 nM; in data set [2] it was 13.1 nM. The molecule also gave an IC50 at 68 h in data set [3] (rat) of 852 nM.

Consider `CCCCCCCC[C@H](NC(=O)[C@@H]1CCCN1C(=O)C1CCc2ccccc2C1)C(=O)N[C@@H](CC(C)C)C(=O)NC(C)(C)C(=O)N[C@@H](CC(C)C)C(=O)N[C@@H](CC(C)C)C(=O)NC(C)(C)C(=O)NC(C)(C)C(=O)NCCC(=O)N[C@@H](C)CN(C)C` (stereo partly drawn) [Compound 5910, (2S)—N-[(1S)-1-[(1-{[(1S)-1-{[(1S)-1-{[1-({1-[(2-{[(2S)-1-(dimethylamino)propan-2-yl]carbamoyl}ethyl)carbamoyl]-1-methylethyl}carbamoyl)-1-methylethyl]carbamoyl}-3-methylbutyl]carbamoyl}-3-methylbutyl]carbamoyl}-1-methylethyl)carbamoyl]-3-methylbutyl]-2-{[(2S)-1-(1,2,3,4-tetrahydronaphthalene-2-carbonyl)pyrrolidin-2-yl]formamido}decanamide] (X5-P[Gly(octyl)]L[Aib]LL[Aib][Aib][βAla]-{NH((S)CH(Me)CH2NMe2)}), for which the IC50 in data set [1] was 2.1 nM; in data set [2] it was 6.7 nM. Also, in data set [3] (rat), the IC50 at 68 h was 230 nM.

Turning to `CCCCCCCC[C@H](NC(=O)[C@@H]1CCCN1C(=O)c1ccc2[nH]ccc2c1)C(=O)N[C@@H](CC(C)C)C(=O)NC(C)(C)C(=O)N[C@@H](CC(C)C)C(=O)N[C@@H](CC(C)C)C(=O)NC(C)(C)C(=O)NC(C)(C)C(=O)NCCC(=O)N[C@@H](C)CN(C)C` [Compound 5911, (2S)—N-[(1S)-1-[(1-{[(1S)-1-{[(1S)-1-{[1-({1-[(2-{[(2S)-1-(dimethylamino)propan-2-yl]carbamoyl}ethyl)carbamoyl]-1-methylethyl}carbamoyl)-1-methylethyl]carbamoyl}-3-methylbutyl]carbamoyl}-3-methylbutyl]carbamoyl}-1-methylethyl)carbamoyl]-3-methylbutyl]-2-{[(2S)-1-(1H-indole-5-carbonyl)pyrrolidin-2-yl]formamido}decanamide] (X7-P[Gly(octyl)]L[Aib]LL[Aib][Aib][βAla]-{NH((S)CH(Me)CH2NMe2)}), the IC50 in data set [1] was found to be 14.4 nM; in data set [2] it was 34.8 nM. Besides, half-maximal inhibition in data set [3] (rat) (IC50 at 68 h) was put at 457 nM.

Regarding `CCCCCCCC[C@H](NC(=O)[C@@H]1CCCN1C(=O)c1ccc(OC)cc1)C(=O)N[C@@H](CC(C)C)C(=O)NC(C)(C)C(=O)N[C@@H](CC(C)C)C(=O)N[C@@H](CC(C)C)C(=O)NC(C)(C)C(=O)NC(C)(C)C(=O)NCCC(=O)N[C@@H](C)CN(C)C` [Compound 5912, (2S)—N-[(1S)-1-[(1-{[(1S)-1-{[(1S)-1-{[1-({1-[(2-{[(2S)-1-(dimethylamino)propan-2-yl]carbamoyl}ethyl)carbamoyl]-1-methylethyl}carbamoyl)-1-methylethyl]carbamoyl}-3-methylbutyl]carbamoyl}-3-methylbutyl]carbamoyl}-1-methylethyl)carbamoyl]-3-methylbutyl]-2-{[(2S)-1-(4-methoxybenzoyl)pyrrolidin-2-yl]formamido}decanamide] ({Benzoyl(4-OMe)}-P[Gly(octyl)]L[Aib]LL[Aib][Aib][βAla]-{NH((S)CH(Me)CH2NMe2)}), the IC50 in data set [1] amounted to 5.1 nM; in data set [2], 12.8 nM. In data set [3] (rat), this molecule returned an IC50 at 68 h of 254 nM.
